Measurements reported in US5215916A, “Super glucocorticoid receptors: receptors with increased affinity and specificity for glucocorticoid steriods” (priority 1991, dated 1993).
Changes are numbered by the printed parent chain.

Legend:
[1] = molecular target: T1, C656S mutant glucocorticoid receptor (Rattus norvegicus, UniProt P06536, C656S/D98G); assay: Competition binding assay with [3H]Dex, COS-7 cytosol, C656S receptor; details: for reduction in relative affinity on replacement of Cys-656 with serine: C656S vs wild type, 2.5 hr incubation
T1 construct: Thus the full length receptor was removed from the VARO vector with BamHI and inserted into the SVL vector; expressed in transfected cells; host or cells: COS-7 (cytosol)
T1 sequence (P06536 1-795 D98G/C656S): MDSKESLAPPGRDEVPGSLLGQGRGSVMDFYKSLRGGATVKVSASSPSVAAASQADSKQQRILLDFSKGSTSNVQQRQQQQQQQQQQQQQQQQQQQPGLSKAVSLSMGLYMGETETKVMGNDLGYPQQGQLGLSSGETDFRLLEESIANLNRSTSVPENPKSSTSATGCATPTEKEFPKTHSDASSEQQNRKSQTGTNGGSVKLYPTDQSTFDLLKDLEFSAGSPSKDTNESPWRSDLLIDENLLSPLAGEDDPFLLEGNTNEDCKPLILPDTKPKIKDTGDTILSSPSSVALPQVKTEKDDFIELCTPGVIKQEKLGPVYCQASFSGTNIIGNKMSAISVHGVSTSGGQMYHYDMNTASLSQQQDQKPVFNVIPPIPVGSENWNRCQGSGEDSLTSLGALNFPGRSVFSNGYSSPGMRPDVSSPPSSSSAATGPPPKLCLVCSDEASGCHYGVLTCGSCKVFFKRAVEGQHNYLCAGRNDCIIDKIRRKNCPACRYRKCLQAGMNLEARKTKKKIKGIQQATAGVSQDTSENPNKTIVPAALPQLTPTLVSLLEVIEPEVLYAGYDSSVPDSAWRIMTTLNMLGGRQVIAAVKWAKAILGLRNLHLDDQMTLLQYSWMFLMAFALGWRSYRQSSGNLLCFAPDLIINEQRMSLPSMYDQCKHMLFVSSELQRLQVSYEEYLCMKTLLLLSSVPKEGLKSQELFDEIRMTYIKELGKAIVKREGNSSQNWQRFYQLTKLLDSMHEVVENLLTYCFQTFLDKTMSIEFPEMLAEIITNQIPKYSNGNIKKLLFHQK
Procedure: (§1) Monolayer cultures of COS-7 cells were grown in DMEM (Gibco) supplemented with 5% fetal bovine serum (FBS) (Biofluids) at 37° C. in a 5% CO2 incubator. Standard calcium phosphate transfection methods were used to introduce the wild type and mutant receptor expression vectors (pSVL) into COS-7 cells (100 mm plates [Costar] at a cell density of about 10^6 /plate were each treated with 10 μg of plasmid DNA). After ~16 hrs of incubation at 37° C. in a 5% CO2 incubator, the excess calcium phosphate and precipitate were removed by washing with phosphate buffered saline (PBS). The cells were incubated at 37° C. for another ~48 hr in DMEM/ 5% FBS and harvested by trypsinization followed by centrifugation (for 10 min at 1570 ×g) and washing 3 times with PBS. The washed cells were stored at -80° C. until used.
(§2) Briefly, 30% cytosol solutions containing ~21 mM Na2 MoO4 were prepared with three parts COS-7 cell cytosol, 2 parts pH 9.5 TAPS buffer, and 5 parts pH 8.8 TAPS buffer. The total EtOH in each experiment was kept constant and at a level of ≤1%. […] After incubation for 2.5 hr, the [^3 H]Dex-Mes-labeled solutions were quick-frozen at -78° C. for subsequent SDS-polyacrylamide gel electrophoresis analysis. The specifically bound [^3 H]Dex was determined by first adding a 10% dextran-coated charcoal solution (added volume =20% of reaction solution volume) to remove free steroid and then subtracting the nonspecific binding seen in the presence of excess nonradioactive Dex.
(§3) The average specific binding was determined after 2.5 or 24 hr of incubation as described above, expressed as percentage of the non-competed control and plotted versus the log10 of the concentration of the competing steroid.
(§4) The initial data were collected from 2.5 hr binding assays because of concerns about the stability of the receptors over longer times.

[2] = molecular target: T2, C661S mutant glucocorticoid receptor (Rattus norvegicus, UniProt P06536, C661S/D98G); assay: Competition binding assay with [3H]Dex, COS-7 cytosol, C661S receptor; details: for decrease in relative affinity on mutation of Cys-661: C661S vs wild type, 2.5 hr incubation
T2 construct: Thus the full length receptor was removed from the VARO vector with BamHI and inserted into the SVL vector; expressed in transfected cells; host or cells: COS-7 (cytosol)
T2 sequence (P06536 1-795 D98G/C661S): T1 sequence (P06536 1-795 D98G/C656S) with S656C, C661S
Procedure: as §1, §2, §3, §4

| Structure (SMILES) | Relative Ka of Steroid Binding to Receptor [1] | Relative Ka of Steroid Binding to Receptor [2] | effect of mutation of Cys-661 on binding [2] | reduction in relative affinity on replacement of Cys-656 with serine [1] | decrease in relative affinity on mutation of Cys-661 [2] |
| --- | --- | --- | --- | --- | --- |
| CC#C[C@]1(O)CC[C@H]2[C@@H]3CCC4=CC(=O)CCC4=C3[C@@H](c3ccc(N(C)C)cc3)C[C@@]21C [RU486] | 3.4 | 3.84 ± 1.36 | little effect |  |  |
| C[C@]12CCC(=O)C=C1CC[C@@H]1[C@@H]2[C@@H](O)C[C@]2(C=O)[C@@H](C(=O)CO)CC[C@@H]12 [Aldosterone, aldosterone] | 0.068 | 0.016 ± 0.007 |  | ≤ 3 fold | approximately 10 fold |
| C[C@]12CC[C@@H]3c4ccc(O)cc4CC[C@H]3[C@@H]1CC[C@@H]2O [17β-Estradiol, 17β-estradiol] | 0.0015 | 0.0017 ± 0.0006 |  | ≥ 10 fold | approximately 10 fold |
